Assay results as given in US8039488B2, “Methods and compositions for inhibition of angiogenesis” (Children's Medical Center Corporation, priority 1996, dated 2011).

Tests used:
[1] = system: bFGF induced corneal neovascularization; experiment: Rabbit cornea angiogenesis assay; assay type: in vivo
Protocol: (§1) Pellets for implantation into rabbit corneas were made by mixing 110 μl of saline containing 12 μg of recombinant bFGF (Takeda Pharmaceuticals-Japan) with 40 mg of sucralfate (Bukh Meditec-Denmark); this suspension was added to 80 μl of 12% hydron (Interferon Sciences) in ethanol. 10 μl aliquots of this mixture was then pipetted onto Teflon pegs and allowed to dry producing approximately 17 pellets. A pellet was implanted into corneal micropockets of each eye of an anesthetized female New Zealand white rabbit, 2 mm from the limbus followed by topical application of erythromycin ointment onto the surface of the cornea. The animals were fed daily from 2 days post-implantation by gastric lavage with either drug suspended in 0.5% carboxymethyl cellulose or 0.5% carboxymethyl cellulose alone. Thalidomide was purchased from Andrulus Pharmaceutical (Maryland) and the EM-12 and Supidimide were kindly provided by Grunenthal GMBH (Germany). The animals were examined with a slit lamp every other day in a masked manner by the same corneal specialist. The area of corneal neovascularization was determined by measuring with a reticule the vessel length (L) from the limbus and the number of clock hours (C) of limbus involved. A formula was used to determine the area of a circular band segment: C/12*3.1416 [r^2−(r−L)^2] where r=6 mm the measured radius of the rabbit cornea.
Pellets containing bFGF and sucralfate were implanted into micropockets of both corneas of rabbits according to Example II. Vessel ingrowth into clear cornea from the limbus was first noted on day 2 and treatments (200 mg/kg orally) were begun on this day. The area of corneal neovascularization was measured from day 4 through day 12. Day 8 measurements were used for comparison between groups. […] Statistical analysis was performed with ANOVA with ranked data to account for interexperimental variation and to guard against a non-normal distribution of data (i.e. outliers) by utilizing a nonparametric method.

[2] = system: chick embryo chorioallantoic membrane; experiment: Chick embryo chorioallantoic membrane (CAM) assay; assay type: in vivo; conditions: examined 48 hours after implantation
Source text: The chick embryo chorioallantoic membrane assay described by Crum et al., Science 230:1375 et seq. […] See also, U.S. Pat. No. 5,001,116, hereby incorporated by reference, which describes the CAM assay at col. 7 of the patent. Briefly, fertilized chick embryos were removed from their shell on day 3 or 4, and a methylcellulose disc containing the compound was implanted on the chorioallantoic membrane.

[3] = system: bFGF induced angiogenesis; experiment: Angiogenesis in the eye, assay described in Example 2, bFGF; assay type: in vivo, rabbit
Protocol: (§2) Angiogenesis in the eye, in the assay described in Example 2, is produced by the presence of bFGF (basic fibroblastic growth factor) and VEGF (vascular endothelial cell growth factor).
as §1

[4] = system: VEGF induced angiogenesis; experiment: Angiogenesis in the eye, assay described in Example 2, VEGF; assay type: in vivo, rabbit
Protocol: as §2, §1

[5] = system: bFGF induced angiogenesis; experiment: Mouse corneal micropocket assay, bFGF pellets; assay type: in vivo, mice; conditions: for inhibition in vivo at 100 mg/kg: dose 100 mg/kg once daily, area of corneal neovascularization vs controls; for inhibition in vivo at 200 mg/kg: dose 200 mg/kg once daily; for inhibition of bFGF induced neovascularization: dose not given
Protocol: (§3) Six to eight week old C57B 16 male mice were obtained from Jackson Laboratories, MA. The mice were anesthetized, and 0.4×0.4 mm pockets were made in the stroma of the mouse cornea adjacent to the limbus. Pellets containing 80 ng of either bFGF or VEGF were implanted in the pellets. The pellets containing bFGF were implanted 1.0-1.2 mm from the limbal vessels, while the pellets containing VEGF were implanted 0.5-0.7 mm from the limbal vessels. Erythromycin was then topically applied.
(§4) The vascular response to the pellets was measured by maximal vessel length and number of clock hours of neovascularization 5 days after implantation of the bFGF pellets and 6 days after implantation of the VEGF pellets. The area of corneal neovascularization was calculated using the following formula which best approximated the area of neovascularization: Area (mm^2)=[π×clock hours×length (mm)×0.2 (mm)].
(§5) Inhibitory effect is expressed in percentage representing the area of corneal neovascularization by either bFGF or VEGF compared to controls (n=8/experiment) of the experiments in which that particular drug was tested. N=the number of eyes that were tested and drugs were given once daily either sc, ip or oral as described.
as §3, with “implanted.” for “implanted in the pellets.”
as §4, with “The mice were then treated with thalidomide, indomethacin, sulindac, or combinations of thalidomide with either indomethacin or sulindac. The vascular” for “The vascular”, “which best approximates the area” for “which best approximated the area”
Six to eight week old C57B16 male mice, obtained from Jackson Laboratories, MA, were anesthetized, and 0.4×0.4 mm pockets were made in the stroma of the mouse cornea adjacent to the limbus. Pellets containing 80 ng of bFGF were implanted 1.0-1.2 mm from the limbal vessels. Erythromycin was then topically applied.
(§6) The mice were then treated with sulindac, or one of the sulindac derivatives, sulindac sulfone or sulindac sulfide. The vascular response to the pellets was measured by maximal vessel length and number of clock hours of neovascularization 5 days after implantation of the bFGF pellets. The area of corneal neovascularization was calculated using the following formula which best approximates the area of neovascularization: Area (mm^2)=[π×clock hours×length (mm)×0.2 (mm)].
Inhibitory effect is expressed in percentage representing the area of corneal neovascularization by bFGF compared to controls (n=8/experiment. N=the number of eyes that were tested and drugs were given once daily either sc, ip or oral as described.

[6] = system: bFGF induced corneal neovascularization; experiment: Rabbit cornea angiogenesis assay; assay type: in vivo; conditions: 100 mg/kg/day
[7] = system: VEGF induced angiogenesis; experiment: Mouse corneal micropocket assay, VEGF pellets; assay type: in vivo, mice; conditions: 6 days after implantation
Protocol: as §3, §4, §5
as §3, with “implanted.” for “implanted in the pellets.”
as §6, with “with thalidomide, indomethacin,” for “with”, “combinations” for “one”, “thalidomide with either indomethacin” for “the sulindac derivatives, sulindac sulfone”, “sulindac.” for “sulindac sulfide.”, “bFGF pellets and 6 days after implantation of the VEGF” for “bFGF”

V2-carcinoma = V2-carcinoma tumor assay in rabbits; assay type: in vivo, rabbit; conditions: 17 days after start of treatment
Protocol: New Zealand White female rabbits, weighing approximately 1.5 kg, obtained from Charles River, Mass., were used for propagating the V2-carcinoma. This tumor originates from a Shope virus-induced papilloma. Small 0.5×0.5 cm pieces were implanted intramuscularly in the right thigh. Treatment with 200 mg/kg/day thalidomide (n=14), 60 mg/kg/day sulindac (n=5), or a combination of thalidomide and sulindac (n=10) was started at day 10 after tumor implantation, when the mean volume of the tumor was 6 cm^3. The control animals (n=13) were treated with methylcellulose. […] The data were collected in 3 separate experiments and each bar represents the standard error of the mean.

Crohn's disease = experiment: Treatment of a patient with Crohn's disease; assay type: in vivo, human; conditions: 100 mg twice a day orally, one week
Protocol: A patient with Crohn's disease was treated using the methods of the present invention. […] Thalidomide was orally administered to them at a dosage of 100 mg twice a day.

[8] = Mus musculus, 120 h, 5 days after implantation
[9] = Mus musculus, 120 h, dose 25 mg/kg once daily, 5 days after implantation

## O=C(O)CCC(C(=O)O)N1C(=O)c2ccccc2C1=O (racemic) [Phthaloyl glutamic acid, N-phthaloyl-DL-glutamic acid]
[1]; 200 mg/kg
  inhibition of angiogenesis in the rabbit cornea assay: 29%
[1]; 200 mg/kg orally
  inhibitory activity on corneal neovascularization, in words: weaker inhibitory effects than thalidomide
[2]
  CAM assay result (avascular zone around the methylcellulose disc): avascular zone with a mild scar

## CO[C@@H]1[C@H](OC(=O)NC(=O)CCl)CC[C@]2(CO2)[C@H]1[C@@]1(C)O[C@@H]1CC=C(C)C [AGM 1470]
[3]; dose 30 mg/kg qod
  % Inhibition of bFGF induced angiogenesis: 48%

## CC(=O)Nc1ccc(O)cc1 [Acetaminophen]
[3]; dose 100 mg/kg
  % Inhibition of bFGF induced angiogenesis: 0%
[4]; dose 100 mg/kg
  % Inhibition of VEGF induced angiogenesis: 0%
[5]; [8]
  inhibition in vivo at 100 mg/kg: 0%

## CC(=O)Oc1ccccc1C(=O)O [Aspirin, aspirin]
[3]; dose 100 mg/kg
  % Inhibition of bFGF induced angiogenesis: 8%

## O=C1CCC(N2Cc3ccccc3C2=O)C(=O)N1 (stereo not shown) [EM-12]
[1]; 200 mg/kg orally, day 8
  median inhibition of the area of vascularized cornea: 42%
[1]; 200 mg/kg/day
  % inhibition in the rabbit cornea assay: 43%
[6]
  % inhibition in the rabbit cornea assay: 21%

## O=c1ccc2cc(O)c(O)cc2o1 [Esculetin, esculetin]
[5]; [8]
  inhibition in vivo at 200 mg/kg: 15%

## C[C@]12CCC(=O)C=C1CC[C@@H]1[C@@H]2[C@@H](O)C[C@@]2(C)[C@H]1CC[C@]2(O)C(=O)CO [Hydrocortisone, hydrocortisone]
[3]; dose 20 mg/kg
  % Inhibition of bFGF induced angiogenesis: 50%
[4]; dose 20 mg/kg
  % Inhibition of VEGF induced angiogenesis: 40%

## CC(C)Cc1ccc(C(C)C(=O)O)cc1 (stereo not shown) [Ibuprofen, ibuprofen]
[3]; dose 20 mg/kg
  % Inhibition of bFGF induced angiogenesis: 7%
[4]; dose 20 mg/kg
  % Inhibition of VEGF induced angiogenesis: 11%
[5]; [9]
  inhibition in vivo at 25 mg/kg: 6%
[7]; dose 25 mg/kg once daily
  % Inhibition of VEGF induced angiogenesis: 8%

## COc1ccc2c(c1)c(CC(=O)O)c(C)n2C(=O)c1ccc(Cl)cc1 [Indomethacin, indomethacin]
[5]; Mus musculus, 120 h, dose 5 mg/kg once daily, 5 days after implantation
  inhibition in vivo at 5 mg/kg: 59%
[7]; dose 5 mg/kg once daily
  % Inhibition of VEGF induced angiogenesis: 61%

## C[C@H](Cc1ccc(O)c(O)c1)[C@@H](C)Cc1ccc(O)c(O)c1 [NDGA, nordihydroguiaretic acid]
[5]; [9]
  inhibition in vivo at 25 mg/kg: 30%

## CS(=O)(=O)Nc1ccc([N+](=O)[O-])cc1OC1CCCCC1 [NS-398]
[5]
  inhibition of bFGF induced neovascularization: 25%

## O=C1CCC(N2C(=O)c3ccccc3C2=O)C(=O)O1 (stereo not shown) [PGA]
[1]; 200 mg/kg orally
  inhibitory activity on corneal neovascularization, in words: weaker inhibitory effects than thalidomide

## O=C1CCN(c2ccccc2)N1 [Phenidone, phenidone]
[5]; [8]
  inhibition in vivo at 100 mg/kg: 17%

## O=c1c(O)c(-c2ccc(O)c(O)c2)oc2cc(O)cc(O)c12 [Quercetin, quercetin]
[5]; Mus musculus, 120 h, dose 300 mg/kg once daily, 5 days after implantation
  inhibition in vivo at 300 mg/kg: 18%

## CCCC(C(=O)OCCN(CC)CC)(c1ccccc1)c1ccccc1.Cl [SKF525AHCL]
[5]
  inhibition of bFGF induced neovascularization: 25%

## CSc1ccc(/C=C2/C(C)=C(CC(=O)O)c3cc(F)ccc32)cc1 [Sulindac sulfide, sulindac sulfide]
[5]; [9]
  inhibition in vivo at 25 mg/kg: 31%
[5]; dose 50 mg/kg once daily, bFGF pellets, 5 days after implantation
  % inhibition: 34%
[5]
  inhibition of bFGF induced neovascularization: 34%

## CC1=C(CC(=O)O)c2cc(F)ccc2/C1=C\c1ccc(S(C)(=O)=O)cc1 [Sulindac sulfone, sulindac sulfone]
[5]; dose 25 mg/kg once daily, 5 days after implantation
  % Inhibition of bFGF induced angiogenesis: 31%
[5]
  inhibition of bFGF induced neovascularization: 31%

## CC1=C(CC(=O)O)c2cc(F)ccc2/C1=C\c1ccc([S+](C)[O-])cc1 (stereo not shown) [Sulindac, (Z)-5-Fluoro-2-methyl-1-[[4-(methyl-sulfinyl)phenyl]methylene]-1H-indene-3-acetic acid]
[3]; dose 25 mg/kg
  % Inhibition of bFGF induced angiogenesis: 52%
V2-carcinoma; 60 mg/kg/day oral
  inhibition of tumor growth: 35%
[4]; dose 25 mg/kg
  % Inhibition of VEGF induced angiogenesis: 54%
[5]; [9]
  inhibition in vivo at 25 mg/kg: 50%
[7]; dose 25 mg/kg once daily
  % Inhibition of VEGF induced angiogenesis: 55%

## O=C1CCC(N2C(=O)c3ccccc3S2(=O)=O)C(=O)N1 (stereo not shown) [Supidimide]
[1]; 200 mg/kg orally
  inhibitory activity on corneal neovascularization, in words: no activity
[1]; 200 mg/kg orally, day 8
  area of corneal neovascularization, % of control: 107 % of control

## O=C1CCC(N2C(=O)c3ccccc3C2=O)C(=O)N1 (stereo not shown) [Thalidomide, thalidomide]
[3]; dose 200 mg/kg
  % Inhibition of bFGF induced angiogenesis: 42%
V2-carcinoma; 200 mg/kg/day oral
  inhibition of tumor growth: 55%
Crohn's disease
  gastrointestinal symptoms, including diarrhea and cramping: lessened
  skin lesion on the lower leg: resolved
[4]; dose 200 mg/kg
  % Inhibition of VEGF induced angiogenesis: 44%
[1]; 200 mg/kg orally
  density of vessel ingrowth: markedly reduced
  sedation of the rabbits: did not demonstrate obvious sedation
[1]; 200 mg/kg orally (FIG. 7)
  onset of inhibition of angiogenesis: after only two doses
[1]; 200 mg/kg orally, day 8
  inhibition of the area of vascularized cornea, range in three experiments: 30-51%
  median inhibition of the area of vascularized cornea: 36%
[5]; [8]
  inhibition in vivo at 200 mg/kg: 41%
[7]; dose 200 mg/kg once daily
  % Inhibition of VEGF induced angiogenesis: 40%

## O=C(O)c1cc2cc(Cc3cccnc3)ccc2o1 [furegrelate sodium]
[5]
  inhibition of bFGF induced neovascularization: 22%

## carbomethylheptyl imidazole
[5]
  inhibition of bFGF induced neovascularization: 32%
